Assay results taken from the supplement of paper PMC10307832.

Experiments:
Experiment in all cases: relative viability (nuclei count vs DMSO), 5 days (fraction); higher = more cells survive
[1] = compound: CC1=CC(=CC=C1)NC2=NC(=CS2)C3=CC=NC=C3 + Cc1nc(Nc2ncc(C(=O)Nc3c(C)cccc3Cl)s2)cc(N2CCN(CCO)CC2)n1 [Dasatinib] (partner 0.075 µM)
Summary of the method: (§1)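 Five library-drug doses in √10 steps were combined with a fixed anchor-drug dose, or a single drug was given alone, by pin tool to lung cancer cell lines in 1536-well plates the day after seeding. Nuclei were stained and counted after 5 days. Relative viability is the nuclei count in treated wells over that in vehicle wells, taken as the median of duplicate plates.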

Masitinib + Trametinib = compound: Cc1ccc(NC(=O)c2ccc(CN3CCN(C)CC3)cc2)cc1Nc1nc(-c2cccnc2)cs1 [Masitinib] + CC(=O)Nc1cccc(-n2c(=O)n(C3CC3)c(=O)c3c(Nc4ccc(I)cc4F)n(C)c(=O)c(C)c32)c1 [Trametinib] (partner 0.02 µM)
Summary of the method: as §1

Masitinib + Foretinib = compound: Cc1ccc(NC(=O)c2ccc(CN3CCN(C)CC3)cc2)cc1Nc1nc(-c2cccnc2)cs1 [Masitinib] + COc1cc2c(Oc3ccc(NC(=O)C4(C(=O)Nc5ccc(F)cc5)CC4)cc3F)ccnc2cc1OCCCN1CCOCC1 [Foretinib] (partner 0.25 µM)
Summary of the method: as §1

Masitinib + Pictilisib = compound: Cc1ccc(NC(=O)c2ccc(CN3CCN(C)CC3)cc2)cc1Nc1nc(-c2cccnc2)cs1 [Masitinib] + CS(=O)(=O)N1CCN(Cc2cc3nc(-c4cccc5[nH]ncc45)nc(N4CCOCC4)c3s2)CC1 [Pictilisib] (partner 1 µM)
Summary of the method: as §1

Cell Line	relative viability ([1]; first compound 0.08 µM)	relative viability ([1]; first compound 0.253 µM)	relative viability ([1]; first compound 0.8 µM)	relative viability ([1]; first compound 2.53 µM)	relative viability ([1]; first compound 8 µM)	relative viability (Masitinib + Trametinib; first compound 0.01 µM)	relative viability (Masitinib + Trametinib; first compound 0.03162 µM)	relative viability (Masitinib + Trametinib; first compound 0.1 µM)	relative viability (Masitinib + Trametinib; first compound 0.3162 µM)	relative viability (Masitinib + Trametinib; first compound 1 µM)	relative viability (Masitinib + Foretinib; first compound 0.01 µM)	relative viability (Masitinib + Foretinib; first compound 0.1 µM)	relative viability (Masitinib + Foretinib; first compound 0.3162 µM)	relative viability (Masitinib + Foretinib; first compound 1 µM)	relative viability (Masitinib + Pictilisib; first compound 0.01 µM)	relative viability (Masitinib + Pictilisib; first compound 0.03162 µM)	relative viability (Masitinib + Pictilisib; first compound 0.1 µM)	relative viability (Masitinib + Pictilisib; first compound 0.3162 µM)	relative viability (Masitinib + Pictilisib; first compound 1 µM)	relative viability (Masitinib + Foretinib; first compound 0.03162 µM)
BEN	0.304	0.273	0.364	0.222	0.327	1.15	0.964	1.13	1.11	1.09	0.702	0.745	0.705	0.461	0.638	0.51	0.71	0.555	0.627	
LC-2-ad	0.522		0.59	0.431	0.478	0.92	0.917	0.911	0.941	0.93	0.87	1.09	0.847	0.825	0.435	0.46	0.467	0.409	0.412	0.859
SW 1573	0.612	0.369	0.612	0.603	0.432	0.666	0.603	0.551	0.542	0.581	0.765	0.97	0.784	0.865	0.471	0.542	0.478	0.472	0.452	0.974
ChaGo-K-1	0.547	0.675	0.605	0.49	0.54	0.972	0.852	0.986	0.909	0.906	0.961	0.924	0.967	0.907	0.929	0.466	0.929	0.823	0.598	0.863
COR-L 105	0.284	0.289	0.349	0.279	0.306	0.475	0.438	0.413	0.411	0.388	1.01	1.06	0.901	0.726	0.396	0.356	0.395	0.412	0.428	0.906
NCI-H1993	0.532	0.513	0.52	0.545	0.485	0.483	0.437	0.578	0.508	0.538	0.864	0.828	0.638	0.742	0.859		1.05	0.778	0.825	0.862
NCI-H2009	0.249	0.308	0.264	0.299	0.312	0.29	0.239	0.296	0.26	0.268	1.18	1.18	1.18	1.19	0.641	0.87	0.756	0.923	0.793	1.17
SK-LU-1	0.144	0.201		0.219	0.224	0.513	0.406	0.534	0.555	0.464	0.803	0.95	0.945	0.931	0.483	0.53	0.643	0.549	0.518	0.815
NCI-H2347	0.274	0.301		0.388	0.389	0.26	0.262	0.291	0.293	0.288	1.02	1.09	0.787	1.15	0.742	0.646	0.668	0.825	0.685	0.847
HCC-366	0.543	0.567	0.625	0.48	0.365		0.275	0.407	0.333	0.34			0.961	0.998	0.119	0.0994	0.131	0.115	0.138	0.933
EMC-BAC-2	0.279	0.312	0.293	0.306	0.332	0.576		0.705	0.806	0.821	0.873	1.02	0.956	1.02	0.553	0.518	0.58	0.552	0.503	0.955
NCI-H3122	0.78	0.821	1.05	0.819	0.77	0.26	0.243	0.24	0.267	0.168	0.89	1.05	1.01	0.887	0.579	0.623	0.595	0.677	0.574	1
SK-MES-1	0.276	0.256	0.327	0.279	0.235	0.519	0.528	0.561	0.485	0.514	1	1.1	0.572	0.841	0.346	0.312	0.406	0.332	0.371	0.861
NCI-H2170	0.581	0.574	0.609	0.564	0.489	1.08	0.76	1.01	0.984	0.98	1.05	1.16	1.02	0.994	0.32	0.28	0.299	0.271	0.301	1.04
EPLC-272H	0.396	0.338	0.273	0.288	0.333	0.28	0.35	0.376	0.268	0.237	0.63	0.669	0.875	0.645	0.29	0.304	0.319	0.284	0.293	0.64
NCI-H1975	0.366	0.353	0.295	0.22	0.165	0.302	0.364	0.374	0.237	0.323	1.02	0.924		0.998	0.288	0.305	0.331	0.224	0.289	0.96
NCI-H647	0.17	0.172	0.195	0.148	0.196	0.45	0.381	0.435	0.364	0.411	1.34	1.46	1.04	1.19	0.424	0.356	0.44	0.333	0.321	1.19

Cell Line	relative viability ([1]; first compound 0.08 µM)	relative viability ([1]; first compound 0.253 µM)	relative viability ([1]; first compound 0.8 µM)	relative viability ([1]; first compound 2.53 µM)	relative viability ([1]; first compound 8 µM)	relative viability (Masitinib + Trametinib; first compound 0.01 µM)	relative viability (Masitinib + Trametinib; first compound 0.03162 µM)	relative viability (Masitinib + Trametinib; first compound 0.1 µM)	relative viability (Masitinib + Trametinib; first compound 0.3162 µM)	relative viability (Masitinib + Trametinib; first compound 1 µM)	relative viability (Masitinib + Foretinib; first compound 0.01 µM)	relative viability (Masitinib + Foretinib; first compound 0.1 µM)	relative viability (Masitinib + Foretinib; first compound 0.3162 µM)	relative viability (Masitinib + Foretinib; first compound 1 µM)	relative viability (Masitinib + Pictilisib; first compound 0.01 µM)	relative viability (Masitinib + Pictilisib; first compound 0.03162 µM)	relative viability (Masitinib + Pictilisib; first compound 0.1 µM)	relative viability (Masitinib + Pictilisib; first compound 0.3162 µM)	relative viability (Masitinib + Pictilisib; first compound 1 µM)	relative viability (Masitinib + Foretinib; first compound 0.03162 µM)
NCI-H441	0.584	0.482	0.834	0.585	0.585	0.5	0.488	0.547	0.336	0.397	0.909	1.12	1.48	0.691	0.654	0.449	0.601	0.482	0.446	0.976
NCI-H1355	0.399	0.463	0.341	0.386	0.375	0.439	0.35	0.497	0.329	0.468	0.914	1.04	0.758	0.968	0.454	0.264	0.418	0.331	0.441	0.797
NCI-H23	0.74	0.542	0.741	0.714	0.792	0.305	0.368	0.469	0.375	0.354	0.945	1.04	0.564	1.01	0.434	0.493	0.525	0.495	0.457	1.05
NCI-H650	0.366	0.413	0.447	0.376	0.475	1.05	1.1	1.03	1.28	0.99	0.978	1.14	0.977	1.01	0.921	0.909	1.09	0.864	0.929	0.966
NCI-H1793	0.343	0.365	0.454	0.459	0.356	0.54	0.388	0.407	0.555	0.346	0.63	0.973	0.519	0.61	0.455	0.318	0.427	0.381	0.338	0.684
NCI-H358	0.214	0.173	0.182	0.185	0.263	0.148	0.13	0.135	0.121	0.122	0.769	0.784	0.625	0.591	0.328	0.319	0.34	0.394	0.296	0.81
NCI-H2087	0.67	0.804	0.742	0.778	0.796	0.176	0.213	0.214	0.153	0.178	1.26	1.18	1.11	1.17	0.894	0.859	0.837	0.93	0.805	0.907
NCI-H838	0.233	0.248	0.244	0.293	0.267	0.375	0.425	0.458	0.451	0.488	0.926	1.18	0.813	1.05	0.477	0.387	0.512	0.396	0.432	0.837
NCI-H460	0.44	0.306	0.554	0.381	0.343	0.13	0.121	0.139	0.13	0.13	1.02	1.06	0.864	0.977	0.587	0.26	0.415	0.254	0.321	1.08
LOU-NH91	0.464	0.51	0.432	0.472	0.458	0.756	0.765	0.792	0.732	0.772	0.886	0.958	0.858	0.897	0.497	0.499	0.492	0.432	0.501	0.908
NCI-H322M	0.244	0.222	0.257	0.264	0.259	0.576	0.465	0.519	0.637	0.566	0.973	1.02	0.935	0.948	0.545	0.463	0.481	0.503	0.483	0.896
NCI-H520	0.225	0.239	0.25	0.209	0.243	0.752	0.634	0.873	0.76	0.598	0.899	0.987	0.695	0.762	0.336		0.366	0.313	0.271	0.937
NCI-H661	0.686	0.862	0.892	0.774	0.808	0.493	0.486	0.563	0.591	0.564	0.945	1.04	0.95	0.965	0.439	0.356	0.511	0.371	0.346	1.05
NCI-H727		0.425	0.517	0.383	0.398	0.333	0.375	0.417	0.366	0.334	0.673	1	0.891	0.85	0.506	0.416	0.443	0.317	0.317	1.02
NCI-H1944	0.202	0.208	0.328	0.243	0.282		0.457		0.349	0.368			0.793	0.85		0.334	0.352	0.317	0.345	0.832
NCI-H1755	0.331	0.417	0.355	0.185	0.321	0.633	0.83	0.788	0.766	0.699		0.975	0.897	0.828		0.387	0.402	0.482	0.423	0.927
